Experimental data reported in US20070232614A1, “Therapeutic Agent for Nonviral Hepatitis” (Mitsubishi Pharma Corporation, priority 2004, published 2007).

Columns and labels:
[1] = test system: concanavalin A-induced hepatitis; assay: Action on concanavalin A-induced hepatitis (plasma ALT 8 hr after Con A); type: in vivo, female BALB/c mouse; settings: therapeutic administration 3 hr after Con A injection (20 mg/kg i.v.), mouse
Protocol: 20 mg/kg of concanavalin A (Con A, type V, manufactured by Sigma) was intravenously administered to female BALB/c mouse (purchased from Charles River Laboratories JAPA, INC.). […] The administration time in the prophylactic administration test of pentoxifylline (manufactured by Sigma) or anti-mouse TNF-α antibody (manufactured by Genzyme-Techne) was set according to the method of Shirin et al. [Journal of Hepatology, 29, 60-67 (1998)] or Gantner et al. [Hepatology, 21, 190-198 (1995)]. The administration time in the therapeutic administration test was always set to 3 hr after Con A injection. To be specific, pentoxifylline (100 mg/kg) was intraperitoneally administered 2 hr before or 3 hr after Con A injection, anti-mouse TNF-α antibody (250 μg, was intravenously administrated 15 minutes before or 3 hr after Con A injection, and plasma SALT was similarly measured 8 hr later.
In addition, the test compound (10 mg/kg) was intravenously administrated 15 minutes before or 3 hr after Con A injection, and plasma ALT concentration was similarly measured.
The results are shown in mean±standard error.

[2] = test system: concanavalin A-induced hepatitis; settings: prophylactic administration before injection of concanavalin A; mouse; non-patent references 3 and 4; cited from earlier work
[3] = test system: severe alcoholic hepatitis; settings: non-patent references 1 and 2; cited from earlier work

Compound	therapeutic effect in the hepatitis model (progress of concanavalin A-induced hepatitis, plasma ALT) [1]	inhibition of the progress of concanavalin A-induced hepatitis [2]	effectiveness for severe alcoholic hepatitis [3]
CC(=O)NC1(c2ccc(CN3CCN(c4ncccn4)CC3)cc2)CC1.Cl [test compound, N-(1-(4-((4-(pyrimidin-2-yl)piperazin-1-yl)methyl)phenyl)cyclopropyl)acetamide hydrochloride]	shows a therapeutic effect	–	–
CC(=O)CCCCn1c(=O)c2c(ncn2C)n(C)c1=O [pentoxifylline]	do not inhibit progress	inhibit the progress	effective
